# Target: T1, human orexin type 2 receptor (Homo sapiens, UniProt O43614)
# T1 construct: expressed in transfected cells
# T1 sequence (O43614 1-444): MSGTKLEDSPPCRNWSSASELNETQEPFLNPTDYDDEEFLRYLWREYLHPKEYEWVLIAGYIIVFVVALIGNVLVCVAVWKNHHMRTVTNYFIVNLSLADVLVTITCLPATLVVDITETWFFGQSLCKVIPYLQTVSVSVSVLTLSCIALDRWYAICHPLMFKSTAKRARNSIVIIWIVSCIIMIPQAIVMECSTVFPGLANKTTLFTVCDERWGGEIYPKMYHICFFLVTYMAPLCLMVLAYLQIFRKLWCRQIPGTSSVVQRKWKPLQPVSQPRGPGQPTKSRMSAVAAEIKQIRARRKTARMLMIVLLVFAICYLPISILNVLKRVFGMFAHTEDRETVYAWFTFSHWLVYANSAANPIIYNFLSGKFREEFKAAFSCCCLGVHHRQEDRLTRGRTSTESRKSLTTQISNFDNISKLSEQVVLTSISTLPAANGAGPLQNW
# Test: Measurement of orexin type 2 receptor agonist activity (calcium fluorescence, CHO cells forcibly expressing human OX2 receptor)
# Format: cell-based
# Settings: compound at 3 μM, DMSO = 0%, orexin A (human) 10 nM = 100%
# Source text: To obtain a cell clone stably expressing human orexin type 2 receptor, human orexin type 2 receptor cDNA was inserted into pcDNA3.1(+) plasmid vector (Invitrogen), and a plasmid DNA for expression of human orexin type 2 receptor (pcDNA3.1(+)/hOX2R) was cloned. The plasmid DNA was introduced into CHO-K1 cell by an electroporation method, and human orexin type 2 receptor-expressing clonal cells were obtained by limiting dilution method using G418 drug resistance as a selection marker.
# CHO cells forcibly expressing human OX2 receptor were seeded in each well of 384 well black transparent bottom plate (BD Falcon) at 10,000 cells/well, and cultured for one day in a 5% CO2 incubator at 37° C. After removal of the medium in the cell plate, assay buffer A containing a calcium indicator (HBSS (Thermo Fisher Scientific), 20 mM HEPES (Thermo Fisher Scientific), 0.1% BSA (Sigma-Aldrich), 2.5 μg/mL Fluo-4 AM (DOJINDO Chemical), 0.08% Pluronic F127 (DOJINDO Chemical), 1.25 mM probenecid (DOJINDO Chemical)) was added thereto at 30 μL/well. The plate was stood for 30 min in a 5% CO2 incubator at 37° C., and further stood at room temperature for 30 min. A test compound prepared by diluting with assay buffer B (HBSS, 20 mM HEPES, 0.1% BSA) was added thereto at 10 μL/well, and the fluorescence value was measured by FDSSμCELL (Hamamatsu Photonics K.K.) every one sec for 1 min, and thereafter every two sec for 1 min 40 sec. The activity (%) of the test compound was calculated assuming that variation in the fluorescence value when DMSO was added instead of the test compound was 0%, and variation in the fluorescence value when orexin A (human) (PEPTIDE INSTITUTE, INC.) was added at the final concentration of 10 nM was 100%.
row,Compound,"OX2R agonist activity (3 μM, %)"
1,"Cc1ccc2n(c1=O)C(COC1CCC(C(F)(F)F)CC1)C(NS(C)(=O)=O)CC2 (racemic) [Example 37, rac-N-[(3S,4R)-7-methyl-6-oxo-4-({[(1s,4S)-4-(trifluoromethyl)cyclohexyl]oxy}methyl)-1,3,4,6-tetrahydro-2H-quinolizin-3-yl]methanesulfonamide]",94%
2,"CCS(=O)(=O)NC1CCc2ccc(C)c(=O)n2C1COC1CCC(c2ccccc2)CC1 (racemic) [Example 15, rac-N-[(3S,4R)-7-methyl-6-oxo-4-({[(1s,4S)-4-phenylcyclohexyl]oxy}methyl)-1,3,4,6-tetrahydro-2H-quinolizin-3-yl]ethanesulfonamide]",96%
3,"Cc1ccc2n(c1=O)C(COC1CCC(C)CC1)C(NS(C)(=O)=O)CC2 [Example 1, rel-N-[(3S,4R)-7-methyl-4-({[(1s,4S)-4-methylcyclohexyl]oxy}methyl)-6-oxo-1,3,4,6-tetrahydro-2H-quinolizin-3-yl]methanesulfonamide]",96%
4,"Cc1ccccc1C1CCC(OCC2C(NS(C)(=O)=O)CCc3ccc(C)c(=O)n32)CC1 (racemic) [Example 19, rac-N-[(3S,4R)-7-methyl-4-({[(1s,4S)-4-(2-methylphenyl)cyclohexyl]oxy}methyl)-6-oxo-1,3,4,6-tetrahydro-2H-quinolizin-3-yl]methanesulfonamide]",89%
5,"Cc1cccc(C2CCC(OCC3C(NS(C)(=O)=O)CCc4ccc(C)c(=O)n43)CC2)c1 (racemic) [Example 21, rac-N-[(3S,4R)-7-methyl-4-({[(1s,4S)-4-(3-methylphenyl)cyclohexyl]oxy}methyl)-6-oxo-1,3,4,6-tetrahydro-2H-quinolizin-3-yl]methanesulfonamide]",92%
6,"Cc1ccc2n(c1=O)C(COC1CCC(C)CC1)C(NS(=O)(=O)N(C)C)CC2 (racemic) [Example 26, rac-N,N-dimethyl-N′-[(3S,4R)-7-methyl-4-({[(1s,4S)-4-methylcyclohexyl]oxy}methyl)-6-oxo-1,3,4,6-tetrahydro-2H-quinolizin-3-yl]sulfuric diamide]",86%
7,"Cc1ccc2n(c1=O)C(COC1CCC(C(C)C)CC1)C(NS(=O)(=O)N(C)C)CC2 (racemic) [Example 28, rac-N,N-dimethyl-N′-[(3S,4R)-7-methyl-6-oxo-4-({[(1s,4S)-4-(propan-2-yl)cyclohexyl]oxy}methyl)-1,3,4,6-tetrahydro-2H-quinolizin-3-yl]sulfuric diamide]",92%
8,"CCC1CCC(OCC2C(NS(=O)(=O)C3CC3)CCc3ccc(C)c(=O)n32)CC1 (racemic) [Example 10, rac-N-[(3S,4R)-4-({[(1s,4S)-4-ethylcyclohexyl]oxy}methyl)-7-methyl-6-oxo-1,3,4,6-tetrahydro-2H-quinolizin-3-yl]cyclopropanesulfonamide]",97%
9,"Cc1ccc2n(c1=O)C(COC1CCC(C)CC1)C(NS(=O)(=O)C1CC1)CC2 (racemic) [Example 8, rac-N-[(3S,4R)-7-methyl-4-({[(1s,4S)-4-methylcyclohexyl]oxy}methyl)-6-oxo-1,3,4,6-tetrahydro-2H-quinolizin-3-yl]cyclopropanesulfonamide]",80%
10,"Cc1ccc2n(c1=O)C(COC1CCC(C(C)C)CC1)C(NS(=O)(=O)C1CC1)CC2 (racemic) [Example 14, rac-N-[(3S,4R)-7-methyl-6-oxo-4-({[(1s,4S)-4-(propan-2-yl)cyclohexyl]oxy}methyl)-1,3,4,6-tetrahydro-2H-quinolizin-3-yl]cyclopropanesulfonamide]",100%

# The next lines start with the values.
row,"OX2R agonist activity (3 μM, %)",Compound
1,87%,"COc1ccccc1C1CCC(OCC2C(NS(C)(=O)=O)CCc3ccc(C)c(=O)n32)CC1 [Example 90, rel-N-[(3S,4R)-4-({[(1s,4S)-4-(2-methoxyphenyl)cyclohexyl]oxy}methyl)-7-methyl-6-oxo-1,3,4,6-tetrahydro-2H-quinolizin-3-yl]methanesulfonamide]"
2,99%,"Cc1ccc2n(c1=O)C(COC1CCC(c3ccccn3)CC1)C(NS(C)(=O)=O)CC2 (racemic) [Example 116, rac-N-[(3S,4R)-7-methyl-6-oxo-4-({[(1s,4S)-4-(pyridin-2-yl)cyclohexyl]oxy)methyl)-1,3,4,6-tetrahydro-2H-quinolizin-3-yl]methanesulfonamide]"
3,84%,"COC(C)C1CCC(OCC2C(NS(C)(=O)=O)CCc3ccc(C)c(=O)n32)CC1 (racemic) [Example 56, N-[(3SR,4RS)-4-({[(1s,4S)-4-(1-methoxyethyl)cyclohexyl]oxy}methyl)-7-methyl-6-oxo-1,3,4,6-tetrahydro-2H-quinolizin-3-yl]methanesulfonamide]"
4,91%,"CCC1CCC(OCC2C(NS(C)(=O)=O)CCc3c(Br)cc(C)c(=O)n32)CC1 [Example 106, rel-N-[(3S,4R)-9-bromo-4-({[(1s,4S)-4-ethylcyclohexyl]oxy}methyl)-7-methyl-6-oxo-1,3,4,6-tetrahydro-2H-quinolizin-3-yl]methanesulfonamide]"
5,75%,"CCOC(=O)CC1CCC(OCC2C(NS(C)(=O)=O)CCc3ccc(C)c(=O)n32)CC1 (racemic) [Example 84, rac-ethyl [(1S,4s)-4-({(3S,4R)-3-[(methanesulfonyl)amino]-7-methyl-6-oxo-1,3,4,6-tetrahydro-2H-quinolizin-4-yl}methoxy)cyclohexyl]acetate]"
6,65%,"CCCOC1CCC(OCC2C(NS(C)(=O)=O)CCc3ccc(C)c(=O)n32)CC1 [Example 107, rel-N-[(3S,4R)-7-methyl-6-oxo-4-({[(1s,4S)-4-propoxycyclohexyl]oxy}methyl)-1,3,4,6-tetrahydro-2H-quinolizin-3-yl]methanesulfonamide]"
7,93%,"CCCCCC1CCC(OCC2C(NS(=O)(=O)C3CC3)CCc3ccc(C)c(=O)n32)CC1 (racemic) [Example 76, rac-N-[(3S,4R)-7-methyl-6-oxo-4-({[(1r,4S)-4-pentylcyclohexyl]oxy}methyl)-1,3,4,6-tetrahydro-2H-quinolizin-3-yl]cyclopropanesulfonamide]"
8,88%,"Cc1ccc2n(c1=O)C(COC1CCC(C(F)F)CC1)C(NS(C)(=O)=O)CC2 (racemic) [Example 55, N-[(3SR,4RS)-4-({[4-(difluoromethyl)cyclohexyl]oxy}methyl)-7-methyl-6-oxo-1,3,4,6-tetrahydro-2H-quinolizin-3-yl]methanesulfonamide]"
9,93%,"CCOC1CCC(OCC2C(NS(C)(=O)=O)CCc3ccc(C)c(=O)n32)CC1 (racemic) [Example 59, rac-N-[(3S,4R)-4-({[(1s,4S)-4-ethoxycyclohexyl]oxy}methyl)-7-methyl-6-oxo-1,3,4,6-tetrahydro-2H-quinolizin-3-yl]methanesulfonamide]"
10,56%,"Cc1ccc2n(c1=O)C(COC1CCC(COC3CCCCO3)CC1)C(NS(C)(=O)=O)CC2 (racemic) [Example 82, N-[(3SR,4RS)-7-methyl-4-(([(1s,4S)-4-{[(oxay-2-yl)oxy]methyl}cyclohexyl]oxy}methyl)-6-oxo-1,3,4,6-tetrahydro-2H-quinolizin-3-yl]methanesulfonamide]"
11,95%,"COC(C)(C)C1CCC(OCC2C(NS(C)(=O)=O)CCc3ccc(C)c(=O)n32)CC1 (racemic) [Example 74, rac-N-[(3S,4R)-4-(([(1s,4S)-4-(2-methoxypropan-2-yl)cyclohexyl]oxy)methyl)-7-methyl-6-oxo-1,3,4,6-tetrahydro-2H-quinolizin-3-yl]methanesulfonamide]"
12,97%,"Cc1ccc2n(c1=O)C(COC1CCC(C3CCC3)CC1)C(NS(C)(=O)=O)CC2 (racemic) [Example 93, rac-N-[(3S,4R)-4-({[(1s,4S)-4-cyclobutylcyclohexyl]oxy}methyl)-7-methyl-6-oxo-1,3,4,6-tetrahydro-2H-quinolizin-3-yl]methanesulfonamide]"
13,99%,"CC#CC1CCC(OCC2C(NS(=O)(=O)N(C)C)CCc3ccc(C)c(=O)n32)CC1 [Example 144, rel-N,N-dimethyl-N′-[(3S,4R)-7-methyl-6-oxo-4-({[(1s,4S)-4-(prop-1-yn-1-yl)cyclohexyl]oxy}methyl)-1,3,4,6-tetrahydro-2H-quinolizin-3-yl]sulfuric diamide]"

# From US12448377B2, “Heterocyclic compound” (Takeda Pharmaceutical Company Limited, priority 2019, dated 2025)
